Data as given in patent US4689340A, “Trihaloimidazole insecticide” (Sumitomo Chemical Company, Limited, priority 1985, dated 1987).
Read-outs that look alike come from different tables or passages of the source.

Legend:
[1] = Acute Oral Toxicity Test to Mice (Test Example 1-1); conditions: mouse, in vivo; for selectivity ratio: po, mice oral LD50 (a) / German cockroach LD50 (b), read-out: Safety coefficient (a)/(b); for LD50 at 168 h: oral (stomach), corn oil, male ICR mice, 7 days' observation
Procedure: 1-1 Acute Oral Toxicity Test to Mice
(§1) The present compounds and the control were each diluted with corn oil to prescribed concentrations, and the dilute solutions obtained were forcedly administered to the stomach of six-week old male mice of ICR strain weighing 24 to 31 g, to which no food had been given for about 20 hours, at a rate of 0.1 ml/10 g of body weight. […] The number of the dead and alive was examined by seven day's observation to obtain LD50 value (50% lethal dosage) (5 mice per group). 1-2 Insecticidal activity test to German cockroach
The results of the acute oral toxicity test to mice and insecticidal activity test to German cockroaches on the test compounds are shown in Table 3. It is apparent from the table that the present compounds have the characteristics that the toxicity to the warm-blooded animal is low and the insecticidal activity on the insect pest is high. In order to make this characteristics clearer, the following safety coefficient was obtained from the test results. [formula]

[2] = tested on: German cockroach (Blattella germanica); assay: Insecticidal activity test to German cockroach, topical application (Test Example 1-2); assay type: in vivo, strain low susceptible to pyrethroids; conditions: 48 h, read-out: Insecticidal activity on German cockroaches LD50 value (b)
Procedure: as §1
The present compounds and the control were each diluted with acetone to prescribed concentrations and topically applied to the ventral thorax of the male adults of German cockroach (Blattella germanica) which belong to a strain low susceptible to pyrethroids, at a rate of 1 μl/adult. After application, the adults were bred on bait and water in a polyethylene cup. After two days, the number of the dead and alive was examined to obtain LD50 value (10 adults per group; two replications).

[3] = tested on: smoky brown cockroach (Periplaneta fuliginosa); assay: Topical application insecticidal test on smoky brown cockroach (Test Example 2); assay type: in vivo; conditions: Validiblatta fuliginosa, 48 h
Procedure: The present compounds and the control were each diluted with acetone and topically applied to the ventral thorax of the male adults of smoky brown cockroach (Periplaneta fuliginosa) at a rate of 10μg a.i./adult. After application, the adults were bred on bait and water in a polyethylene cup. After two days, the number of the dead and alive was examined to obtain a mortality (5 adults per group; two replications).

[4] = tested on: German cockroach (Blattella germanica); assay: Heating fumigant test in (70 cm)^3 glass chamber (Test Example 3); assay type: in vivo, strain low susceptible to pyrethroids; conditions: for mortality at 40 mg/m3, 40 mg/m3: Blattella germanica, 48 h
Procedure: (§2) One hundred mg of each of the present compounds (1) to (7) is dissolved in a proper amount of acetone, and a porous ceramic plate of 4.0 cm×4.0cm×1.2 cm (thick) is impregnated with this solution to obtain the heating fumigant of each compound.
Four polyethylene cups (inside diameter, 10 cm; height, 8 cm) coated with butter at the inside surface were set at the four corners, respectively, of the bottom of a (70 cm)^3 glass chamber (0.34 m^3). Ten male adults per group of German cockroach (Blattella germanica) which belongs to a strain low susceptible to pyrethroids, were liberated in each of two polyethylene cups, and 10 female adults per group of the insect were liberated in each of the remaining two. An electric heater was set at the center of the bottom of the glass chamber, and each of the porous ceramic plates impregnating the present compounds and the control according to Formulation example 8 (13.7 mg/plate: 40 mg/m^3), was placed thereon. The plate was heated to about 200° C. by applying current for 20 minutes. The number of knocked-down insects with the lapse of time was examined to obtain KT50 (50% knocked-down time). Eighty minutes after current application was started, the cups containing the test insects were taken out of the chamber, and the test insects were bred on water and bait. After two days, the number of the dead and alive was examined to obtain a mortality.

[5] = tested on: German cockroaches (Blattella germanica); assay: Heating fumigant test in (183 cm)^3 Peet Grady's chamber (Test Example 4); assay type: in vivo, strain low susceptible to pyrethroids; conditions: for mortality at 10 mg/m3, 10 mg/m3: Blattella germanica, 72 h
Procedure: as §2
At the bottom of a (183 cm)^3 Peet Grady's chamber (6.1 m^3) were placed three polyethylene cups (inside diameter, 10 cm; height, 8 cm) coated with butter at the inside surface, and 20 adult German cockroaches (10 males and 10 females) (Blattella germanica), which belong to a strain low susceptible to pyrethroids were liberated in each cup. An electric heater was set at the center of the bottom of the chamber, and each of the porous ceramic plates impregnated with the present compounds and the control according to Formulation example 8 (61 mg/plate: 10 mg/m^3), was placed thereon. The plate was heated to about 200° C. by applying current for 70 minutes. The number of knocked-down insects with the lapse of time was examined to obtain KT50 value (50% knocked-downtime). Eighty minutes after current application was started, the cups containing the test insects were taken out of the chamber, and the test insects were bred on water and bait. After three days, the number of the dead and alive was examined to obtain a mortality.

[6] = tested on: German cockroach (Blattela germanica); assay: Oil spray direct spray knock-down test, susceptible strain (Test Example 5); assay type: in vivo; conditions: 0.6 ml of 0.1% oil spray
Source text: (§3) […] of the present compound (1), 2 parts of xylene and 97.8 parts of kerosene are mixed to obtain an oil spray.
(§4) Two groups of five male and five femlae adults per group of German cockroach (Blattela germanica), one group belonging to a susceptible strain and the other belonging to a strain low susceptible to pyrethroids,were liberated in a polyethylene cup of 9 cm in diameter thinly coated with vaseline at the inside surface. After covering the cup with a 16-mesh nylon gauze, the cup was placed on the bottom of a glass cylinder (inside diameter, 10 cm; height, 37 cm). Thereafter 0.6 ml of each of the 0.1% oil sprays of the present compounds and the control, prepared according to Formulation example 1, was directly sprayed onto the adults by means of a spray gun under 0.6 atmospheric pressure from the top of the cylinder. The number of knocked-down insects with the lapse of time was counted to obtain KT50 value (50% knocked-down time) (two replications).

[7] = tested on: German cockroach (Blattela germanica); assay: Oil spray direct spray knock-down test, strain low susceptible to pyrethroids (Test Example 5); assay type: in vivo; conditions: 0.6 ml of 0.1% oil spray
Source text: as §3, §4

cockroach = assay: Insecticidal activity as cockroach-controlling insecticides (general statement); assay type: in vivo; conditions: among the listed cockroach-controlling compounds
[8] = ceramic plate heating fumigant, 13.7 mg/plate: 40 mg/m^3, 0.34 m^3 chamber
[9] = ceramic plate heating fumigant, 61 mg/plate: 10 mg/m^3, 6.1 m^3 chamber
[10] = ceramic plate heating fumigant, 13.7 mg/plate: 40 mg/m^3, 0.34 m^3 chamber, after two days, read-out: Mortality (%)
[11] = ceramic plate heating fumigant, 61 mg/plate: 10 mg/m^3, 6.1 m^3 chamber, after three days, read-out: Mortality (%)

Row | Compound | selectivity ratio [1] | LD50 at 168 h [1] [mg/kg] | LD50 [2] [mg/kg] | mortality at 0.01 mg [3] [%] | mortality at 40 mg/m3, 40 mg/m3 [4] [%] | KT50 value (50% knocked-down time) [4, 8] [min] | mortality at 10 mg/m3, 10 mg/m3 [5] [%] | KT50 value (50% knocked-down time) [5, 9] [min] | Susceptible strain KT50 value [6] [min] | Strain low susceptible to pyrethroids KT50 value [7] | insecticidal activity (in words) (cockroach) | mortality at 40 mg/m3, 40 mg/m3 [4, 10] [%] | mortality at 10 mg/m3, 10 mg/m3 [5, 11] [%] | mortality at 0.01 mg ([3]; 10μg a.i./adult, male adults, after two days, read-out: Mortality (%)) [%]
1 | Clc1nc(Cl)n(COCCCCBr)c1Cl [(1), 1-(4-bromobutoxymethyl)-2,4,5-trichloroimidazole] | > 50 | > 300 | 6.4 | 80 | 100 | 28 | 100 | 38 | 1.1 | 0.70 min | most superior insecticidal activity |  |  | 
2 | ClCCCCOCn1c(Cl)nc(Cl)c1Cl [(2), 1-(4-chlorobutoxymethyl)-2,4,5-trichloroimidazole] | > 50 | > 300 | 6.2 | 100 | 100 | 41 | 80 | 63 |  |  |  |  |  | 
3 | BrCCCCOCn1c(Br)nc(Br)c1Br [(3), 1-(4-bromobutoxymethyl)-2,4,5-tribromoimidazole] |  |  |  |  |  | 45 |  | 77 | 1.1 | 1.2 min |  | 100 | 90 | 
4 | ClCCCCOCn1c(Br)nc(Br)c1Br [(4), 1-(4-chlorobutoxymethyl)-2,4,5-tribromoimidazole] |  |  |  |  |  | 58 |  |  | 2.1 | ≈ 0.5 minute |  | 90 |  | 
5 | Clc1nc(Cl)n(COCCCCCBr)c1Cl [(5)] |  |  |  |  |  | 68 |  |  |  |  |  | 87.5 |  | 
6 | Clc1nc(Cl)n(COCCCCCCBr)c1Cl [(6), 1-(6-bromohexyloxymethyl)-2,4,5-trichloroimidazole] |  |  |  |  |  |  |  | 41 |  |  |  |  | 95 | 
7 | BrCCCCCCOCn1c(Br)nc(Br)c1Br [(7), 1-(6-bromohexyloxymethyl)-2,4,5-tribromoimidazole] |  |  |  |  |  | 65 |  |  | 2.3 | 0.72 min |  | 92.5 |  | 
8 | CCCCOCn1c(Cl)nc(Cl)c1Cl [(A)] |  |  | > 10 |  |  |  |  | > 80 | > 20 | > 20 min |  |  | 8 | 
9 | CCCCCOCn1c(Cl)nc(Cl)c1Cl [(B)] |  |  | > 20 |  |  | > 80 |  | > 80 | > 20 | > 20 min |  | 47.5 | 0 | 40
10 | BrCCOCn1c(Br)nc(Br)c1Br [(C)] | 16 | 110 | 7 |  |  |  | 40 | > 80 | > 20 | ≥ 20 min |  |  |  | 
11 | ClCCOCn1c(Br)nc(Br)c1Br [(D)] | 18 | 170 | 9.4 |  |  |  | 3 | > 80 | > 20 | ≈ 20 minute |  |  |  | 
12 | CNC(=O)Oc1ccccc1OC(C)C [(E), Propoxur] | 5.6 | 39 | 7 |  |  | > 80 |  | > 80 | 6.9 | 10 min |  | 0 | 0 | 
